≈ marks a conversion by molar mass, not a printed value.
Assays:
Assay type in all cases: functional
[1] = system: Mycobacterium tuberculosis; experiment: Antimycobacterial activity against clinical isolates of multidrug resistant/extensively drug resistant Mycobacterium tuberculosis 8666/2010 after 14 days by micromethod; conditions: 8666/2010, 336 h
[2] = system: Mycobacterium tuberculosis; experiment: Antimycobacterial activity against clinical isolates of multidrug resistant/extensively drug resistant Mycobacterium tuberculosis Praha 4 after 21 days by micromethod; conditions: Praha 4, 504 h
[3] = system: Mycobacterium tuberculosis; experiment: Antimycobacterial activity against clinical isolates of multidrug resistant/extensively drug resistant Mycobacterium tuberculosis Praha 4 after 14 days by micromethod; conditions: Praha 4, 336 h
[4] = system: Mycobacterium tuberculosis; experiment: Antimycobacterial activity against clinical isolates of multidrug resistant/extensively drug resistant Mycobacterium tuberculosis 8666/2010 after 21 days by micromethod; conditions: 8666/2010, 504 h
[5] = system: Mycobacterium tuberculosis; experiment: Antimycobacterial activity against clinical isolates of multidrug resistant/extensively drug resistant Mycobacterium tuberculosis Praha 1 after 14 days by micromethod; conditions: Praha 1, 336 h
[6] = system: Mycobacterium tuberculosis; experiment: Antimycobacterial activity against clinical isolates of multidrug resistant/extensively drug resistant Mycobacterium tuberculosis 7357/1998 after 21 days by micromethod; conditions: 7357/1998, 504 h
[7] = system: Mycobacterium tuberculosis; experiment: Antimycobacterial activity against clinical isolates of multidrug resistant/extensively drug resistant Mycobacterium tuberculosis 234/2005 after 14 days by micromethod; conditions: 234/2005, 336 h
[8] = system: Mycobacterium tuberculosis; experiment: Antimycobacterial activity against clinical isolates of multidrug resistant/extensively drug resistant Mycobacterium tuberculosis Praha 1 after 21 days by micromethod; conditions: Praha 1, 504 h
[9] = system: Mycobacterium tuberculosis; experiment: Antimycobacterial activity against clinical isolates of multidrug resistant/extensively drug resistant Mycobacterium tuberculosis 234/2005 after 21 days by micromethod; conditions: 234/2005, 504 h
[10] = system: Mycobacterium tuberculosis; experiment: Antimycobacterial activity against clinical isolates of multidrug resistant/extensively drug resistant Mycobacterium tuberculosis 9449/2007 after 21 days by micromethod; conditions: 9449/2007, 504 h
[11] = system: Mycobacterium tuberculosis; experiment: Antimycobacterial activity against clinical isolates of multidrug resistant/extensively drug resistant Mycobacterium tuberculosis Praha 131 after 14 days by micromethod; conditions: Praha 131, 336 h
[12] = system: Mycobacterium tuberculosis; experiment: Antimycobacterial activity against clinical isolates of multidrug resistant/extensively drug resistant Mycobacterium tuberculosis Praha 131 after 21 days by micromethod; conditions: Praha 131, 504 h
[13] = system: Mycobacterium tuberculosis; experiment: Antimycobacterial activity against clinical isolates of multidrug resistant/extensively drug resistant Mycobacterium tuberculosis 9449/2007 after 14 days by micromethod; conditions: 9449/2007, 336 h
[14] = system: Mycobacterium tuberculosis; experiment: Antimycobacterial activity against clinical isolates of multidrug resistant/extensively drug resistant Mycobacterium tuberculosis 7357/1998 after 14 days by micromethod; conditions: 7357/1998, 336 h

SMILES	MIC [1] [µM]	MIC [2] [µM]	MIC [3] [µM]	MIC [4] [µM]	MIC [5] [µM]	MIC [6] [µM]	MIC [7] [µM]	MIC [8] [µM]	MIC [9] [µM]	MIC [10] [µM]	MIC [11] [µM]	MIC [12] [µM]	MIC [13] [µM]	MIC [14] [µM]
O=[N+]([O-])c1cc(-c2nnn(Cc3cccc(F)c3)n2)cc([N+](=O)[O-])c1	1 (≈ 0.344 µg/mL)	1 (≈ 0.344 µg/mL)	1 (≈ 0.344 µg/mL)	1 (≈ 0.344 µg/mL)	1 (≈ 0.344 µg/mL)	1 (≈ 0.344 µg/mL)	1 (≈ 0.344 µg/mL)	1 (≈ 0.344 µg/mL)	1 (≈ 0.344 µg/mL)	1 (≈ 0.344 µg/mL)	1 (≈ 0.344 µg/mL)	1 (≈ 0.344 µg/mL)	1 (≈ 0.344 µg/mL)	1 (≈ 0.344 µg/mL)
O=[N+]([O-])c1cc(-c2nnn(CSc3nnnn3-c3ccc(Cl)c(Cl)c3)n2)cc([N+](=O)[O-])c1		0.03 (≈ 0.0149 µg/mL)	0.03 (≈ 0.0149 µg/mL)		0.03 (≈ 0.0149 µg/mL)	0.03 (≈ 0.0149 µg/mL)	0.03 (≈ 0.0149 µg/mL)	0.03 (≈ 0.0149 µg/mL)	0.03 (≈ 0.0149 µg/mL)	0.03 (≈ 0.0149 µg/mL)	0.03 (≈ 0.0149 µg/mL)	0.03 (≈ 0.0149 µg/mL)	0.03 (≈ 0.0149 µg/mL)	0.03 (≈ 0.0149 µg/mL)
O=[N+]([O-])c1cc(-c2nnn(CCCSc3nnnn3-c3ccc(Br)cc3)n2)cc([N+](=O)[O-])c1		0.25 (≈ 0.133 µg/mL)	0.25 (≈ 0.133 µg/mL)		0.25 (≈ 0.133 µg/mL)	0.25 (≈ 0.133 µg/mL)	0.25 (≈ 0.133 µg/mL)	0.25 (≈ 0.133 µg/mL)	0.25 (≈ 0.133 µg/mL)	0.25 (≈ 0.133 µg/mL)	0.25 (≈ 0.133 µg/mL)	0.25 (≈ 0.133 µg/mL)	0.25 (≈ 0.133 µg/mL)	0.25 (≈ 0.133 µg/mL)
O=[N+]([O-])c1cc(-c2nnn(Cc3cccc(Br)c3)n2)cc([N+](=O)[O-])c1	0.25 (≈ 0.101 µg/mL)	1 (≈ 0.405 µg/mL)	0.5 (≈ 0.203 µg/mL)	0.5 (≈ 0.203 µg/mL)	0.5 (≈ 0.203 µg/mL)	0.5 (≈ 0.203 µg/mL)	0.25 (≈ 0.101 µg/mL)	0.5 (≈ 0.203 µg/mL)	0.5 (≈ 0.203 µg/mL)	0.5 (≈ 0.203 µg/mL)	0.5 (≈ 0.203 µg/mL)	1 (≈ 0.405 µg/mL)	0.25 (≈ 0.101 µg/mL)	0.5 (≈ 0.203 µg/mL)
O=[N+]([O-])c1cc(-c2nnn(CCCCSc3nnnn3-c3ccc(Br)cc3)n2)cc([N+](=O)[O-])c1		0.25 (≈ 0.137 µg/mL)	0.25 (≈ 0.137 µg/mL)		0.25 (≈ 0.137 µg/mL)	0.25 (≈ 0.137 µg/mL)	0.25 (≈ 0.137 µg/mL)	0.25 (≈ 0.137 µg/mL)	0.25 (≈ 0.137 µg/mL)	0.5 (≈ 0.274 µg/mL)	0.25 (≈ 0.137 µg/mL)	0.25 (≈ 0.137 µg/mL)	0.25 (≈ 0.137 µg/mL)	0.25 (≈ 0.137 µg/mL)
O=[N+]([O-])c1cc(-c2nnn(CSc3nnnn3-c3ccc(Cl)cc3)n2)cc([N+](=O)[O-])c1		0.03 (≈ 0.0138 µg/mL)	0.03 (≈ 0.0138 µg/mL)		0.03 (≈ 0.0138 µg/mL)	0.03 (≈ 0.0138 µg/mL)	0.03 (≈ 0.0138 µg/mL)	0.06 (≈ 0.0276 µg/mL)	0.06 (≈ 0.0276 µg/mL)	0.03 (≈ 0.0138 µg/mL)	0.03 (≈ 0.0138 µg/mL)	0.03 (≈ 0.0138 µg/mL)	0.03 (≈ 0.0138 µg/mL)	0.03 (≈ 0.0138 µg/mL)
Cc1ccc(Cn2nnc(-c3cc([N+](=O)[O-])cc([N+](=O)[O-])c3)n2)cc1	0.12 (≈ 0.0408 µg/mL)	0.12 (≈ 0.0408 µg/mL)	0.12 (≈ 0.0408 µg/mL)	0.12 (≈ 0.0408 µg/mL)	0.12 (≈ 0.0408 µg/mL)	0.12 (≈ 0.0408 µg/mL)	0.12 (≈ 0.0408 µg/mL)	0.25 (≈ 0.0851 µg/mL)	0.12 (≈ 0.0408 µg/mL)	0.12 (≈ 0.0408 µg/mL)	0.12 (≈ 0.0408 µg/mL)	0.12 (≈ 0.0408 µg/mL)	0.12 (≈ 0.0408 µg/mL)	0.12 (≈ 0.0408 µg/mL)
O=[N+]([O-])c1cc(-c2nnn(Cc3ccc(F)cc3)n2)cc([N+](=O)[O-])c1	0.5 (≈ 0.172 µg/mL)	1 (≈ 0.344 µg/mL)	0.5 (≈ 0.172 µg/mL)	0.5 (≈ 0.172 µg/mL)	1 (≈ 0.344 µg/mL)	0.5 (≈ 0.172 µg/mL)	0.5 (≈ 0.172 µg/mL)	1 (≈ 0.344 µg/mL)	1 (≈ 0.344 µg/mL)	0.5 (≈ 0.172 µg/mL)	0.5 (≈ 0.172 µg/mL)	1 (≈ 0.344 µg/mL)	0.25 (≈ 0.0861 µg/mL)	0.5 (≈ 0.172 µg/mL)
O=[N+]([O-])c1cc(-c2nnn(CSc3nnnn3-c3ccc(Br)cc3)n2)cc([N+](=O)[O-])c1		0.03 (≈ 0.0152 µg/mL)	0.03 (≈ 0.0152 µg/mL)		0.03 (≈ 0.0152 µg/mL)	0.03 (≈ 0.0152 µg/mL)	0.03 (≈ 0.0152 µg/mL)	0.03 (≈ 0.0152 µg/mL)	0.03 (≈ 0.0152 µg/mL)	0.03 (≈ 0.0152 µg/mL)	0.03 (≈ 0.0152 µg/mL)	0.03 (≈ 0.0152 µg/mL)	0.03 (≈ 0.0152 µg/mL)	0.03 (≈ 0.0152 µg/mL)
O=[N+]([O-])c1cc(-c2nnn(Cc3ccccc3)n2)cc([N+](=O)[O-])c1		1 (≈ 0.326 µg/mL)	1 (≈ 0.326 µg/mL)		1 (≈ 0.326 µg/mL)	1 (≈ 0.326 µg/mL)	1 (≈ 0.326 µg/mL)	1 (≈ 0.326 µg/mL)	1 (≈ 0.326 µg/mL)	1 (≈ 0.326 µg/mL)	1 (≈ 0.326 µg/mL)	1 (≈ 0.326 µg/mL)	1 (≈ 0.326 µg/mL)	1 (≈ 0.326 µg/mL)
COc1ccc(Cn2nnc(-c3cc([N+](=O)[O-])cc([N+](=O)[O-])c3)n2)cc1	0.03 (≈ 0.0107 µg/mL)	0.03 (≈ 0.0107 µg/mL)	0.03 (≈ 0.0107 µg/mL)	0.03 (≈ 0.0107 µg/mL)	0.03 (≈ 0.0107 µg/mL)	0.03 (≈ 0.0107 µg/mL)	0.03 (≈ 0.0107 µg/mL)	0.03 (≈ 0.0107 µg/mL)	0.06 (≈ 0.0214 µg/mL)	0.03 (≈ 0.0107 µg/mL)	0.03 (≈ 0.0107 µg/mL)	0.03 (≈ 0.0107 µg/mL)	0.03 (≈ 0.0107 µg/mL)	0.03 (≈ 0.0107 µg/mL)
COc1cccc(-n2nnnc2SCn2nnc(-c3cc([N+](=O)[O-])cc([N+](=O)[O-])c3)n2)c1		0.03 (≈ 0.0137 µg/mL)	0.03 (≈ 0.0137 µg/mL)		0.03 (≈ 0.0137 µg/mL)	0.03 (≈ 0.0137 µg/mL)	0.03 (≈ 0.0137 µg/mL)	0.03 (≈ 0.0137 µg/mL)	0.03 (≈ 0.0137 µg/mL)	0.06 (≈ 0.0274 µg/mL)	0.03 (≈ 0.0137 µg/mL)	0.03 (≈ 0.0137 µg/mL)	0.03 (≈ 0.0137 µg/mL)	0.03 (≈ 0.0137 µg/mL)

From ChEMBL document CHEMBL4011590, “Structure-activity relationship studies on 3,5-dinitrophenyl tetrazoles as antitubercular agents” (Eur J Med Chem, 2017)
